Data from patent US20240425511A1, “HETEROCYCLIC COMPOUNDS FOR USE IN THE TREATMENT OF CANCER” (ARTIOS PHARMA LIMITED, priority 2021, published 2024).

Biological target: Human Polθ polymerase domain (aa1820-2590) (Homo sapiens (Human), UniProt O75417)
Experiment: Polθ Polymerase Domain WT Ki Assay (PicoGreen assay)
Type: biochemical
Conditions: average of repeat determinations; 100 nM DNA substrate, 50 μM dNTPs, 0.156 nM Polθ
Description: A PicoGreen assay was used to measure the K, values of reversible compounds that inhibit the activity of Polθ in vitro.
Human Polθ polymerase domain (aa1820-2590) was expressed in E. Coli, purified, aliquoted and stored at −80° C. until required. Polθ substrate was generated from a 1.2:1 mix of DNA II Short to DNA II Long to give a final concentration of […] substrate in annealing buffer (20 mM Tris pH 7.5, 50 mM NaCl). The substrate was heated in 50 mL aliquots to 95° C. in a heating block for 5 min before the heating block switched off, the reaction left to cool to rt and stored at −20° C. until required.
Assay measurements were performed with 1× buffer comprising 25 mM Tris pH 7.5, 12.5 mM NaCl, […], 5% (v/v) glycerol, 0.01% v/v Triton x-100, 0.1 mg/ml BSA, 1 mM DTT. […]
To stop the reaction, 5 μL of a solution containing 25 mM Tris-HCl pH 7.5 and 20 mM EDTA was added at […] (t=0, 15, 30, 60, 90, 120, 150, 180 mins) using the Tempest's time delay function. […] After completing the assay, 5 μL of detection reagent (25 mM Tris-HCl pH 7.5 and 2.5% (v/v) PicoGreen) was dispensed into the wells using a Tempest liquid handler (Formulatrix) and plates subsequently read on the CLARIOstar Plus (BMG Labtech) using the default optical settings for fluorescein and the auto gain/focus settings. […]

Sequence of Human Polθ polymerase domain (aa1820-2590) (O75417 1820-2590): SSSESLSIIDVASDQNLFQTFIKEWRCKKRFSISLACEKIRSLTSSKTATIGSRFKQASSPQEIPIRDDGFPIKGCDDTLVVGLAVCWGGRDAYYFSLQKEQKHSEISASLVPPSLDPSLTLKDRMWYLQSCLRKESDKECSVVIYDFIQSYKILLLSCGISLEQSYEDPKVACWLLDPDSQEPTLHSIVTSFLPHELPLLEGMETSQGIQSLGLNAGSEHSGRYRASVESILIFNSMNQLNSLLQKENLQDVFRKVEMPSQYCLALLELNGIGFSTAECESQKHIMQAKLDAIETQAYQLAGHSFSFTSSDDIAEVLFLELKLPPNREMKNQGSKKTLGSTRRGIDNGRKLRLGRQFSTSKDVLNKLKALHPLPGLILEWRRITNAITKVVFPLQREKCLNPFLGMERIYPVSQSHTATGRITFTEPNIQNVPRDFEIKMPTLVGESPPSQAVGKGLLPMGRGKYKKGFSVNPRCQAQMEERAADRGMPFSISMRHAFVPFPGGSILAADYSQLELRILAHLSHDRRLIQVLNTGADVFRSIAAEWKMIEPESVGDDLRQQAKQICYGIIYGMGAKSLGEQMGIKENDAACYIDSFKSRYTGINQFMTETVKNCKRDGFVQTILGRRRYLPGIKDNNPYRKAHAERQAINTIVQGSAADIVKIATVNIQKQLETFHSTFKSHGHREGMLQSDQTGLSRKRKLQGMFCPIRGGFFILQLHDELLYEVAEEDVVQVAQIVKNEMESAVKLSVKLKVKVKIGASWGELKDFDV

Ki: 1.27 nM
Structure (SMILES): Cc1cc(C(F)(F)F)cc(N2C(=O)C[C@@H]3CN(CCN4CCN(C)CC4)c4c(C)cccc4N(C)C(=O)[C@H]32)n1 [Example 1, (3aR,11aS)-6,10-Dimethyl-1-(6-methyl-4-(trifluoromethyl)pyridin-2-yl)-5-(2-(4-methylpiperazin-1-yl)ethyl)-1,3a,4,5,10,11a-hexahydro-2H-benzo[b]pyrrolo[2,3-f][1,4]diazocine-2,11(3H)-dione]
